Data: patent US6589934B1, “Kv2.1 antagonists” (SmithKline Beecham Corporation, priority 1997, dated 2003)

Biological target: T1, human kv2.1 (Homo sapiens, UniProt Q14721)
T1 construct: A HindIII-Notl fragment containing full length 2.1 was isolated from pBS/kv2.1 and subcloned to pcDNA3 for expression; expressed in transfected cells
T1 sequence (Q14721 1-858): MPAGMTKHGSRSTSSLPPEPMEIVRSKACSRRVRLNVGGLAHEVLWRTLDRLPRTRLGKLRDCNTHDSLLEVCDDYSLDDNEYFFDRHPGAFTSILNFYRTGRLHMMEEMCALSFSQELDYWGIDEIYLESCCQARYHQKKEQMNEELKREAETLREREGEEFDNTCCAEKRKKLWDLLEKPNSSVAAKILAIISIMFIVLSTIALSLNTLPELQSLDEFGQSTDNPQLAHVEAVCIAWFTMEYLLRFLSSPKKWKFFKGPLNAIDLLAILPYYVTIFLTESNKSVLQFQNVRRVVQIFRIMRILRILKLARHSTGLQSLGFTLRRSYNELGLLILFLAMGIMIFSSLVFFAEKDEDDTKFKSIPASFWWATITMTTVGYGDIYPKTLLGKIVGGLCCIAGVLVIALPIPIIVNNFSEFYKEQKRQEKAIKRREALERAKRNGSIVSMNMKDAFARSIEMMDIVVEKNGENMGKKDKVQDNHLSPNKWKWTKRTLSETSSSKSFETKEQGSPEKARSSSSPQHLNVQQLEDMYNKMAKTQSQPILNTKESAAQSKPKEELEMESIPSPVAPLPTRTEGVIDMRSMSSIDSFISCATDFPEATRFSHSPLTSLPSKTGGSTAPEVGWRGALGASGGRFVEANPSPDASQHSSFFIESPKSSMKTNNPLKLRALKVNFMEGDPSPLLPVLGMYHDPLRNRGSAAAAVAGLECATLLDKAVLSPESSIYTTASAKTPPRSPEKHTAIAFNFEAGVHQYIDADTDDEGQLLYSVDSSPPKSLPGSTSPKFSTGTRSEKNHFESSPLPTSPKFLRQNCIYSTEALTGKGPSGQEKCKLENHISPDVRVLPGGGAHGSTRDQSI
Assay: Whole cell patch clamp block of Kv2.1 in stably expressing CHO cells
Type: cell-based
Conditions: CHO cells stably expressing Kv2.1, whole cell patch clamp
Source text: Full length cDNA of human kv2.1 was amplified from human brain polyA RNA by PCR. Oligo primers used for PCR amplification were designed according to the GeneBank accession# X68302 . The sequences of the two primers are: (5′ PCR primer) 5′-[…] (SEQ ID NO: 1), (3′ PCR primer) 5′-[…] (SEQ ID NO: 2). The cDNA was subcloned into pBS and sequenced. A HindIII-Notl fragment containing full length 2.1 was isolated from pBS/kv2.1 and subcloned to pcDNA3 for expression. The clone was transferred to pcDNA3 under the CMV promotor. […] Specifically, 1.5 μg of plasmid DNA (1.2 μg of Kv2.1 Plasmid and 0.3 μg of GFP plasmid Green Lantern™ (GIBCO)) was pre-incubated with 100 μl of DMEM/F12 and 12 μl of lipofectamine for a minimum of 15 minutes. Following incubation 1.4 ml of DMEM/F12 was added and the mixture overlayed on CHO cells (70-90% confluent) in a 6 well tray (1.5 ml/well). After 6-8 hours incubation an additional 1.5 ml of DMEM/F12 media containing 10% FBS was added to the transfection reaction. After a further overnight incubation the cells were removed from the 6 well plate with […] and plated at single cell density (10% Confluency) in 6 well plates contianing 25 mm glass coverslips. After overnight incubation, GFP containing cells were patched for current.
Stable CHO lines were prepared by using the same transfection protocol as above excluding the GFP DNA. […]

Compound | IC50 [nM]
CN1C[C@@H]2CN(CCCCc3ccc4c(c3)OCCO4)C[C@H](C1)[C@@H]2OC(=O)c1ccc(Cl)cc1 [Example 4] | ~300
hanatoxin (ECRYLFGGCKTTSDCCKHLGCKFRDKYCAWDFTFS) [reference compound] | ~60
